For this test, the system named is R223X stop codon in the mutated luciferase gene, ADXC8 luciferase reporter cell line. Put plainly: cells. The format is cell-based. Particulars: ADXC8 cells, 24 hours; for Emax / EC (100% of 200 uM G418 response): 24 h; for Emax: read-out: Fold Over Control, maximum fold response relative to 200 μM G418; for EC (100% of 200 uM G418 response): read-out: pC100%, negative logarithm of the concentration giving the same response as 200 μM G418; for pC100%: negative logarithm of the concentration giving the same response as 200 μM G418. As for the experimental part: The read-through activity of compounds was assessed using the ADXC8 luciferase reporter cell line (generated as described in McElroy et al. PLoS Biology (2013), 11, e1001593). […] The amount of luciferase is measured by adding a lysis buffer containing luciferin substrate and detecting luminescence using the following protocol:
ADXC8 cells in assay media (DMEM+10% FBS) were seeded into 96-well tissue culture treated white plates (Greiner) to a density of 13,000 cells per well and incubated for 24 hours at 37° C. in an atmosphere of 5% CO2. […] Plates were incubated for a further 24 hours at 37° C. in an atmosphere of 5% CO2. Cells treated with 200 μM G418 (with 1% DMSO) were used as a positive control.
Cell viability and firefly luciferase activity were measured in the same assay wells. CellTiter-Fluor™ reagent was prepared as per manufacturer's instructions (Promega E7120) and 20 μl of 5× CellTiter-Fluor™ reagent was added to all wells, briefly mixed by orbital shaking (300-500 rpm for −30 seconds) and the plates incubated for 30-45 minutes at 37° C. in an atmosphere of 5% C02. Cell viability was measured by monitoring fluorescence on a CLARIOstar® plate reader (BMG Labtech). Cells containing 1% DMSO were used as a positive control and cells with 400 μM Doxorubicin were used as negative control to define 100 and 0% respectively. ONE-Glo™ luciferase assay buffer (Promega E7120) was prepared according to manufacturer's instructions and 100 μl of luciferase reagent was added to each well and the plate incubated at RT for 3 mins before measuring the luminescence on the CLARIOstar® plate reader (BMG Labtech). Cells treated with 200 μM G418 (with 1% DMSO) were used as a positive control and arbitrarily assigned a value of 100%. Cells treated with 1% DMSO were used as the negative control to define 0% response.
Concentration effect curves were analysed using non-linear regression using the CDD Vault from Collaborative Drug Discovery (Burlingame, CA). […] The bottom and top of the curves were constrained to 0 and the maximum measured response respectively. From the fitted curves, the software derived C100% values (the concentration giving the same response as 200 μM G418) for each compound. The negative logarithm of C100% is reported as pC100% (Table 1). In addition to pC100% values, the maximum fold response relative to 200 μM G418 (Fold over Control) was also captured (Table 1). A pC100% categorisation of ‘-’ in Table 1 represents examples in which a pC100% response was not reached when assayed at a concentration of 100 μM. A pC100% categorisation of ‘*’ in Table 1 represents examples in which a pC100% response was not reached when assayed at a concentration of 30 μM.

Bounds are passed on as bounds.

As for `Cc1cc(C)c2c(N)nc(NC3CCN(CC(F)(F)F)CC3)nc2n1` [Example 178], the Emax lay in the range of 0 to 100% and the EC (100% of 200 uM G418 response) is above 100 µM.

Turning to `CNc1nc(NC2CC3CCC2N3)nc2nc(C)cc(C)c12` (stereo not shown) [Example 518, N^2-(-7-azabicyclo[2.2.1]heptan-2-yl)-N^4,5,7-trimethylpyrido[2,3-d]pyrimidine-2,4-diamine], the pC100% result was “+ (pC100% > 4.0 ≤ 5.0)”. Besides, the “Fold Over Control” value (maximum fold response relative to 200 μM G418) was “## (Fold over Ctrl > 1 ≤ 30)”.

Regarding `Cc1cc(C)c2c(N)nc(N[C@H]3CCCNC3)nc2n1` [Example 352], the Emax was in the range of 100 to 3000% and the EC (100% of 200 uM G418 response) lay within 10 to 100 µM.

Turning to `CN1CCC(Nc2nc(N)c3ccc(Nc4ccccc4)nc3n2)CC1` [Example 35, N^2-(1-methylpiperidin-4-yl)-N^7-phenylpyrido[2,3-d]pyrimidine-2,4,7-triamine], the Emax lay within 0 to 100% and the EC (100% of 200 uM G418 response) was above 100 µM.

`CNc1nc(N[C@H]2CNC[C@@H]2F)nc2nc(C)cc(C)c12` [Example 334]: the EC (100% of 200 uM G418 response) is 1 to 10 µM.

As for `Cc1cc(C)c2c(N)nc(NCCNCC(F)F)nc2n1` [Example 168], the Emax was in the range of 100 to 3000% and the EC (100% of 200 uM G418 response) is 10 to 100 µM.

With `CNc1nc(NC2CCN3CCCC3C2)nc2nc(C)cc(C)c12` (single isomer, unassigned) [Example 443], the Emax fell in the range of 100 to 3000% and the pC100% entry is given as “++ (pC100% > 5.0 ≤ 6.0)”.

Consider `Cc1cc(C)c2c(N)nc(N[C@H]3CN(C)C[C@@H]3O)nc2n1` [Example 226, (3S,4S)-4-((4-amino-5,7-dimethylpyrido[2,3-d]pyrimidin-2-yl)amino)-1-methylpyrrolidin-3-ol], for which the Emax lay in the range of 100 to 3000% and the EC (100% of 200 uM G418 response) fell in the range of 0.1 to 1 µM.

For the compound `COCC1CN(CCNc2nc(N)c3c(C)cc(C)nc3n2)C1` [Example 164], the Emax was in the range of 0 to 100% and the EC (100% of 200 uM G418 response) is above 31.6 µM.

Turning to `CNc1nc(N[C@H]2CN(C3CCC3)C[C@@H]2O)nc2nc(C)cc(C)c12` [Example 624], the Emax lay within 100 to 3000% and the EC (100% of 200 uM G418 response) lay in the range of 1 to 10 µM.

As to `CSc1cccc(-c2ccc3c(N)nc(NC4CCN(C)CC4)nc3n2)c1` [Example 99], the EC (100% of 200 uM G418 response) fell in the range of 0.1 to 1 µM.

Consider `[2H]C([2H])([2H])Nc1nc(NC2CCN(C)CC2)nc2nc(C)cc(C)c12` [Example 328], for which the Emax lay in the range of 100 to 3000% and the EC (100% of 200 uM G418 response) lay within 1 to 10 µM.

For the compound `CNc1nc(N[C@H]2CN(C(C)C)C[C@H]2F)nc2nc(C)cc(C)c12` [Example 523, N^2-((3S,4R)-4-fluoro-1-isopropylpyrrolidin-3-yl)-N^4,5,7-trimethylpyrido[2,3-d]pyrimidine-2,4-diamine], the Emax is 100 to 3000% and the EC (100% of 200 uM G418 response) was 1 to 10 µM.

As to `Cc1c2c(nc3nc(NC4CCN(Cc5cccc6cc[nH]c56)CC4)nc(N)c13)CCC2` [Example 672], the Emax fell in the range of 100 to 3000% and the EC (100% of 200 uM G418 response) lay within 0.01 to 0.1 µM.

`CNc1nc(N[C@H]2CN[C@@H](COC)C2)nc2nc(C)cc(C)c12` [Example 406]: the EC (100% of 200 uM G418 response) fell in the range of 1 to 10 µM.

With `CNc1nc(N[C@H]2CN(C)C[C@H]2O)nc2nc(C)c3c(c12)CCC3` [Example 364], the Emax was 100 to 3000% and the EC (100% of 200 uM G418 response) was in the range of 1 to 10 µM.

With `Cc1cc(C)c2c(N)nc(N[C@H]3CN[C@@H](C)C3)nc2n1` [Example 350], the Emax was in the range of 100 to 3000% and the EC (100% of 200 uM G418 response) was 1 to 10 µM.

Turning to `Cc1ccc2c(N)nc(NC3CCN(C)CC3)nc2n1` [Example 3, 7-methyl-N^2-(1-methylpiperidin-4-yl)pyrido[2,3-d]pyrimidine-2,4-diamine], the EC (100% of 200 uM G418 response) lay in the range of 1 to 10 µM.

On to `Cc1nc2nc(NC3CCN(C)CC3)nc(N)c2cc1Br` [Example 21, 6-bromo-7-methyl-N-(1-methylpiperidin-4-yl)pyrido[2,3-d]pyrimidine-2,4-diamine], for which the Emax was in the range of 100 to 3000% and the EC (100% of 200 uM G418 response) is 1 to 10 µM.

Values taken from patent US20260234144A1 (TAY THERAPEUTICS LIMITED, priority 2023, published 2026).
